Experimental data published in US9540649B2, “Method for opening tight junctions” (The Provost, Fellows and Scholars of the College of the …, priority 2007, dated 2017).
“Also recorded” adds a separate entry of the source.

How the values were obtained:
[1] = system: claudin-5; experiment: Immunohistochemical analysis of claudin-5 expression and localisation in brain microvessels; format: in vivo, C57/Bl6 mice
Experimental: Rapid high pressure, high volume tail vein injections were carried out (Kiang et al., 2005). Wild type C57/Bl6 mice of weight 20-30 g were individually restrained inside a 60-ml volume plastic tube. The protruding tail was warmed for 5 minutes prior to injection under a 60-W lamp and the tail vein clearly visualized by illumination from below. 20 micrograms of targeting siRNA, or non-targeting siRNA made up with PBS to a volume in mls of 10% of the body weight in grams or PBS alone, was injected into the tail vein at a rate of 1 ml/sec using a 26-gauge (26 G 3/8) needle. After 24, 48, 72 hours and 1 week, protein was isolated from total brain tissue by crushing brains to a fine powder in liquid N2 and subsequently using lysis buffer containing 62.5 mM Tris, 2% SDS, 10 mM Dithiothreitol, 10 μl protease inhibitor cocktail/100 ml (Sigma Aldrich, Ireland). The homogenate was centrifuged at 10,000 g for 20 mins @4° C., and the supernatant was removed for claudin-5 analysis.
Brain cryosections were blocked with 5% Normal Goat Serum (NGS) in PBS for 20 mins at room temperature. Primary antibody (Rabbit anti-Claudin-5, Zymed, California) was incubated on sections overnight at 4° C. […] A secondary rabbit IgG-Cy3 antibody was incubated with the sections at 37° C. for 2 hours followed by 3 washes with PBS. All sections were counterstained with DAPI for 30 seconds at a dilution of 1:5000 of a stock 1 mg/ml solution. Analysis of stained sections was performed with an Olympus FluoView™ FV1000 Confocal microscope.

[2] = system: Tie-2; experiment: Tie-2 expression following suppression of claudin-5 (Western blot); format: in vivo, C57/Bl6 mice; details: any time point post delivery of claudin-5 siRNA
[3] = system: occludin; experiment: Occludin expression following suppression of claudin-5 (Western blot, immunohistochemistry); format: in vivo, C57/Bl6 mice; details: all time points post-delivery of claudin-5 siRNA
[4] = system: BBB; experiment: MRI assessment of BBB integrity with contrasting agent Gd-DTPA (742 Da); format: in vivo, C57/Bl6 mice
Experimental: Following injection of siRNA and using appropriate controls, BBB integrity was assessed in vivo via MRI, using a dedicated small rodent Bruker BioSpec 70/30 (i.e. 7 T, 30 cm bore) with an actively shielded USR Magnet. Mice were anaesthetised with isofluorane, and physiologically monitored (ECG, respiration and temperature) and placed on an MRI-compatible support cradle, which has a built-in system for maintaining the animal's body temperature at 37° C. The cradle was then positioned within the MRI scanner. Accurate positioning is ensured by acquiring an initial rapid pilot image, which is then used to ensure the correct geometry is scanned in all subsequent MRI experiments. Upon insertion into the MRI scanner, high resolution anatomical images of the brain were acquired (100 μm in-plane and 500 μm through-plane spatial resolution). BBB integrity was then visualised in high resolution T1 weighted MR images before and after injection of a 0.1 mM/L/kg bolus of Gd-DTPA (Gadolinium diethylene-triamine pentaacetic acid), administered via the tail vein.
Gd-DTPA was injected in the tail vein to assess whether Gd-TPA would permeate across the BBB. Following injection of siRNA and using appropriate controls, BBB integrity to a molecule of 742 Daltons (Gd-DTPA) was assessed via MRI, using a dedicated small rodent Bruker BioSpec 70/30 (i.e. 7 T, 30 cm bore) with an actively shielded USR Magnet. Mice were anaesthetised with isofluorane, and physiologically monitored (ECG, respiration and temperature) and placed on an MRI-compatible support cradle, which has a built-in system for maintaining the animal's body temperature at 37° C. The cradle was then positioned within the MRI scanner. Accurate positioning is ensured by acquiring an initial rapid pilot image, which is then used to ensure the correct geometry is scanned in all subsequent MRI experiments. Upon insertion into the MRI scanner, high resolution anatomical images of the brain were acquired (100 μm in-plane and 500 μm through-plane spatial resolution). BBB integrity was then visualised in high resolution T1 weighted MR images before and after injection of a 0.1 mM/L/kg bolus of Gd-DTPA (Gadolinium diethylene-triamine pentaacetic acid), administered via the tail vein. Following injection of Gd-DTPA, repeated 3 minute T1-weighted scans were performed over a period of 30 minutes, and images shown are representative of the final scans of this 30 minute period. Statistical analysis of all densitometric results of combined regions of the Cerebellum, Hippocampus and Cortex was performed using ANOVA, with significance represented by a P value of ≦0.05, and results are presented both graphically and in a quantitative image depicting the rate of Gd-DTPA deposition within the brain. All MRI scans were performed on 2 mice from each experimental treatment.

[5] = system: iBRB; experiment: MRI analysis of Gd-DTPA diffusion across the iBRB (eye); format: in vivo, mice; details: 48 hours post-injection
[6] = MRI water diffusion in the brains of mice after claudin-5 siRNA; format: in vivo; details: 24 and 48 hours post injection
Experimental: 24 and 48 hours post-delivery of siRNA targeting claudin-5 or a non-targeting siRNA mice were anaesthetised with isofluorane, and physiologically monitored (ECG, respiration and temperature) and placed on an MRI-compatible support cradle, which has a built-in system for maintaining the animal's body temperature at 37° C. The cradle was then positioned within the MRI scanner. Accurate positioning is ensured by acquiring an initial rapid pilot image, which is then used to ensure the correct geometry is scanned in all subsequent MRI experiments. Upon insertion into the MRI scanner, high resolution anatomical images of the brain were acquired (100 μm in-plane and 500 μm through-plane spatial resolution). Water diffusion scans were subsequently undertaken. Using a standard diffusion imaging sequence such as a spin-echo EPI imaging sequence with diffusion gradients (Stejskal-Taner gradients) in order to acquire images over a large range of b-values. In this way, the effect of the technique in the vascular compartment and in the brain parenchymal tissue can be compared. All experiments were carried out on a 7 T Brüker small-bore system with 400 mT/m maximum gradient strength. Image processing and calculation of ADCs was carried out using IDL.

[7] = listed as siRNA targeting claudin-5

## claudin-5 siRNA: siRNA, sense CGUUGGAAAUUCUGGGUCUUU (SEQ ID NO: 1), antisense AGACCCAGAAUUUCCAACGUU (SEQ ID NO: 2) (listed as RNA, chemistry not given here)
[1]; 24 hours post delivery
  claudin-5 staining pattern in brain microvessels, immunohistochemistry: decreased and non-continuous; also recorded: less intense
[1]; 48 hours post injection
  claudin-5 staining pattern in brain microvessels, immunohistochemistry: striking decrease in expression; also recorded: marked decrease; also recorded: dramatically reduced
[1]; 48 hours post injection, listed as siRNA targeting claudin-5
  claudin-5 staining pattern in brain microvessels, immunohistochemistry: highly fragmented and discontinuous
[1]; 72 hours post-injection
  claudin-5 staining pattern in brain microvessels, immunohistochemistry: evident, yet non-continuous; also recorded: evident, yet not as intense as the control groups; also recorded: still attenuated
[2]
  Tie-2 (140 kDa) expression, Western blot: no distinct changes
[3]
  occludin expression, Western blot: remain un-changed at all time points
[4]; 24 hours and 48 hours post injection, vs control groups
  densitometric analysis of MRI contrasting, Cerebellum, Hippocampus and Cortex combined: significant increase in contrasting
[4]; 24 hours post-injection
  Gd-DTPA (742 Da) passage across BBB, MRI: Gd-DTPA crossed the BBB and was deposited within the brain
[4]; 48 hours post-injection
  Gd-DTPA (742 Da) passage across BBB, MRI: Gd-DTPA crossed the BBB and was deposited within the brain; also recorded: Gd-DTPA crossed the BBB and was deposited in the parenchymal tissue of the brain; also recorded: widespread and intense contrasting throughout the brain; also recorded: extremely large quantities of Gd-DTPA were deposited in the brain
[4]; 48 hours post-injection, listed as siRNA targeting claudin-5
  Gd-DTPA (742 Da) passage across BBB, MRI: enhanced contrasting within the brain
[4]; 72 hours or 1 week post-injection
  Gd-DTPA (742 Da) passage across BBB, MRI: intact barrier with no deposition of Gd-DTPA
[4]; 72 hours or 1 week post-injection, listed as siRNA targeting claudin-5
  Gd-DTPA (742 Da) passage across BBB, MRI: nor was it present; also recorded: no deposition of Gd-DTPA
[5]
  Gd-DTPA contrasting in the eye / iBRB integrity, MRI: Strong contrasting
[5]; [7]
  Gd-DTPA contrasting in the eye / iBRB integrity, MRI: iBRB was compromised
[6]
  rate of water diffusion in the brain, MRI: no changes in diffusion
[6]; [7]
  rate of water diffusion in the brain, MRI: no change in the rate of water diffusion
